In ChEMBL document CHEMBL3351810, “[(11)C-carbonyl]CEP-32496: radiosynthesis, biodistribution and PET study of brain uptake in P-gp/BCRP knockout mice” (Bioorg Med Chem Lett, 2014):

Columns and labels:
Mus musculus [1] = experiment: Biodistribution in mouse small intestine at 8.4 MBq/0.1 ml, iv after 1 min by PET imaging analysis; type: ADME, organism-based; settings: in vivo
Mus musculus [2] = experiment: Biodistribution in mouse small intestine at 8.4 MBq/0.1 ml, iv after 5 mins by PET imaging analysis; type: ADME, organism-based; settings: in vivo
Mus musculus [3] = experiment: Biodistribution in mouse small intestine at 8.4 MBq/0.1 ml, iv after 15 mins by PET imaging analysis; type: ADME, organism-based; settings: in vivo, 0.25 h
Mus musculus [4] = experiment: Biodistribution in mouse small intestine at 8.4 MBq/0.1 ml, iv after 30 mins by PET imaging analysis; type: ADME, organism-based; settings: in vivo, 0.5 h
Mus musculus [5] = experiment: Biodistribution in mouse small intestine at 8.4 MBq/0.1 ml, iv after 60 mins by PET imaging analysis; type: ADME, organism-based; settings: in vivo, 1 h
Mus musculus [6] = experiment: Biodistribution in mouse large intestine at 8.4 MBq/0.1 ml, iv after 1 min by PET imaging analysis; type: ADME, organism-based; settings: in vivo
Mus musculus [7] = experiment: Biodistribution in mouse large intestine at 8.4 MBq/0.1 ml, iv after 5 mins by PET imaging analysis; type: ADME, organism-based; settings: in vivo
Mus musculus [8] = experiment: Biodistribution in mouse large intestine at 8.4 MBq/0.1 ml, iv after 15 mins by PET imaging analysis; type: ADME, organism-based; settings: in vivo, 0.25 h
Mus musculus [9] = experiment: Biodistribution in mouse large intestine at 8.4 MBq/0.1 ml, iv after 30 mins by PET imaging analysis; type: ADME, organism-based; settings: in vivo, 0.5 h
Mus musculus [10] = experiment: Biodistribution in mouse large intestine at 8.4 MBq/0.1 ml, iv after 60 mins by PET imaging analysis; type: ADME, organism-based; settings: in vivo, 1 h
Muscle tissue [11] = experiment: Biodistribution in mouse muscle at 8.4 MBq/0.1 ml, iv after 1 min by PET imaging analysis; type: ADME, organism-based; settings: in vivo
Muscle tissue [12] = experiment: Biodistribution in mouse muscle at 8.4 MBq/0.1 ml, iv after 5 mins by PET imaging analysis; type: ADME, organism-based; settings: in vivo
Muscle tissue [13] = experiment: Biodistribution in mouse muscle at 8.4 MBq/0.1 ml, iv after 15 mins by PET imaging analysis; type: ADME, organism-based; settings: in vivo, 0.25 h
Muscle tissue [14] = experiment: Biodistribution in mouse muscle at 8.4 MBq/0.1 ml, iv after 30 mins by PET imaging analysis; type: ADME, organism-based; settings: in vivo, 0.5 h
Muscle tissue [15] = experiment: Biodistribution in mouse muscle at 8.4 MBq/0.1 ml, iv after 60 mins by PET imaging analysis; type: ADME, organism-based; settings: in vivo, 1 h
Brain [16] = experiment: Biodistribution in mouse brain at 8.4 MBq/0.1 ml, iv after 1 min by PET imaging analysis; type: ADME, organism-based; settings: in vivo
Brain [17] = experiment: Biodistribution in mouse brain at 8.4 MBq/0.1 ml, iv after 5 mins by PET imaging analysis; type: ADME, organism-based; settings: in vivo
Brain [18] = experiment: Biodistribution in mouse brain at 8.4 MBq/0.1 ml, iv after 15 mins by PET imaging analysis; type: ADME, organism-based; settings: in vivo, 0.25 h
Brain [19] = experiment: Biodistribution in mouse brain at 8.4 MBq/0.1 ml, iv after 30 mins by PET imaging analysis; type: ADME, organism-based; settings: in vivo, 0.5 h
Brain [20] = experiment: Biodistribution in mouse brain at 8.4 MBq/0.1 ml, iv after 60 mins by PET imaging analysis; type: ADME, organism-based; settings: in vivo, 1 h
Brain [21] = experiment: Biodistribution in wild type mouse brain by PET imaging analysis; type: ADME, organism-based; settings: in vivo
Brain [22] = experiment: Biodistribution in P-gp/BCRP knockout mouse brain by PET imaging analysis; type: ADME, organism-based; settings: in vivo
Brain [23] = experiment: Ratio of drug uptake in P-gp/BCRP knockout mouse brain to wild type mouse brain; type: ADME; settings: in vivo
Blood [24] = experiment: Biodistribution in mouse blood at 8.4 MBq/0.1 ml, iv after 1 min by PET imaging analysis; type: ADME, organism-based; settings: in vivo
Blood [25] = experiment: Biodistribution in mouse blood at 8.4 MBq/0.1 ml, iv after 5 mins by PET imaging analysis; type: ADME, organism-based; settings: in vivo
Blood [26] = experiment: Biodistribution in mouse blood at 8.4 MBq/0.1 ml, iv after 15 mins by PET imaging analysis; type: ADME, organism-based; settings: in vivo, 0.25 h
Blood [27] = experiment: Biodistribution in mouse blood at 8.4 MBq/0.1 ml, iv after 30 mins by PET imaging analysis; type: ADME, organism-based; settings: in vivo, 0.5 h
Blood [28] = experiment: Biodistribution in mouse blood at 8.4 MBq/0.1 ml, iv after 60 mins by PET imaging analysis; type: ADME, organism-based; settings: in vivo, 1 h
Heart = experiment: Biodistribution in mouse heart at 8.4 MBq/0.1 ml, iv after 1 min by PET imaging analysis; type: ADME, organism-based; settings: in vivo

## COc1cc2ncnc(Oc3cccc(N[11C](=O)Nc4cc(C(C)(C)C(F)(F)F)on4)c3)c2cc1OC.Cl
Mus musculus [1]
  Drug uptake: 5.92 % ID/g
Mus musculus [2]
  Drug uptake: 14.31 % ID/g
Mus musculus [3]
  Drug uptake: 22.18 % ID/g
Mus musculus [4]
  Drug uptake: 25.4 % ID/g
Mus musculus [5]
  Drug uptake: 21.23 % ID/g
Mus musculus [6]
  Drug uptake: 0.81 % ID/g
Mus musculus [7]
  Drug uptake: 0.76 % ID/g
Mus musculus [8]
  Drug uptake: 1.01 % ID/g
Mus musculus [9]
  Drug uptake: 1.69 % ID/g
Mus musculus [10]
  Drug uptake: 1.98 % ID/g
Muscle tissue [11]
  Drug uptake: 2.37 % ID/g
Muscle tissue [12]
  Drug uptake: 1.52 % ID/g
Muscle tissue [13]
  Drug uptake: 1.6 % ID/g
Muscle tissue [14]
  Drug uptake: 1.54 % ID/g
Muscle tissue [15]
  Drug uptake: 1.06 % ID/g
Brain [16]
  Drug uptake: 0.21 % ID/g
Brain [17]
  Drug uptake: 0.1 % ID/g
Brain [18]
  Drug uptake: 0.11 % ID/g
Brain [19]
  Drug uptake: 0.12 % ID/g
Brain [20]
  Drug uptake: 0.08 % ID/g
Brain [21]
  Drug uptake: Active
Brain [22]
  Drug uptake: Active
Brain [23]
  Ratio: 24
Blood [24]
  Drug uptake: 3.14 % ID/g
Blood [25]
  Drug uptake: 0.99 % ID/g
Blood [26]
  Drug uptake: 0.95 % ID/g
Blood [27]
  Drug uptake: 0.87 % ID/g
Blood [28]
  Drug uptake: 0.61 % ID/g
Heart
  Drug uptake: 11.25 % ID/g
